Consider three molecules from patent publication US10449135B2, “Solublizing agents for UV filters in cosmetic formulations” (BASF SE, priority 2014, dated 2019).

The nature of this data set: Solubility tests of UV filters in the solubilizing agent. Particulars: solvent: morpholine amide of formula (AM-01); stirred seven days at 25° C.; concentration by UV/Vis-spectrometry. The format is physicochemical. On the procedure: 2 ml of the solubilizing agent are filled into a 20 ml vial with cap. Afterwards 0.02 g (1%) of the respective substance (UV Filter) are weighed and added to the solvent. The vial is placed into a thermostat-controlled water bath, wherein the suspension/solution is stirred during seven days at 25° C. If the amount of substance put into the solubilizing agent is fully soluble, additional substance is added until precipitation can be observed. After seven days, the sample is centrifuged for 30 minutes at 13000 rpm at 25° C. The supernatant is transferred into a small beaker. In case the sample is still turbid, it is filtered through a 0.2 μm non-steril Membrex 25 PET filter. Clear solutions must not be filtered. When a clear solution is obtained, the concentration of the substance is determined with UV/Vis-spectrometry. For this purpose the sample may be diluted with a suitable solvent or, in case of lower concentrations, may be measured as is. In order to evaluate the concentration from the UV-spectroscopic results, the extinction coefficient is needed, which is determined independently with a solvent of similar polarity like that one used for dilution of the saturated solutions. The solubility can be calculated using the equation of the Lambert-Beer-Law.
For the molecule `CCCCCCOC(=O)c1ccccc1C(=O)c1ccc(N(CC)CC)cc1O` [BPH-02], the “Solubility of UV filter in solubilizing agent” value is recorded as >40%.

For the molecule `CCCCC(CC)COc1ccc(-c2nc(-c3ccc(OC)cc3)nc(-c3ccc(OCC(CC)CCCC)cc3O)n2)c(O)c1` (stereo not drawn) [HTP-02], the “Solubility of UV filter in solubilizing agent” value worked out at 15%. The same measure for `CCCCC(CC)COC(=O)c1ccc(Nc2nc(Nc3ccc(C(=O)OCC(CC)CCCC)cc3)nc(Nc3ccc(C(=O)OCC(CC)CCCC)cc3)n2)cc1` (stereo not drawn) [TAT-02]: 45%.
